Assays:
[1] = target: Acidic mammalian chitinase (Homo sapiens, UniProt Q9BZP6); assay: Inhibition of full length recombinant C-terminal His-tagged human acidic mammalian chitinase expressed in CHOK1 cells assessed as reduction in chitinolytic activity using 4-methylumbelliferyl-beta-D-N,N-diacetylchitobioside hydrate as substrate incubated for 60 mins under shaking condition by microplate fluorometry analysis; set-up: species or system CHO-K1
Chitotriosidase-1 = Chitotriosidase-1 (Homo sapiens, UniProt Q13231); assay: Inhibition of full length recombinant C-terminal His-taged human CHIT1 expressed in CHOK1 cells assessed as reduction in chitinolytic activity using 4-methylumbelliferyl-beta-D-N,N',N''-[…] as substrate incubated for 60 mins under shaking condition by microplate fluorometry analysis; set-up: species or system CHO-K1
[2] = Clearance in BALB/c mouse at 3 mg/kg, iv administered as single bolus dose measured after 24 hrs by LC-MS/MS analysis; type: ADME, organism-based; settings: in vivo
[3] = Volume of distribution at steady state in BALB/c mouse at 3 mg/kg, iv administered as single bolus dose measured after 24 hrs by LC-MS/MS analysis; type: ADME, organism-based; settings: in vivo, read-out: Vdss
[4] = target: T1, Voltage-gated inwardly rectifying potassium channel KCNH2 (Homo sapiens, UniProt Q12809); assay: Displacement of Tracer Red from human ERG by fluorescence polarization assay
[5] = AUC (0 to infinity) in BALB/c mouse at 3 mg/kg, iv administered as single dose measured after 24 hrs by LC-MS/MS analysis; type: ADME, organism-based; set-up: dose 3 mg/kg, route intravenous, time infinity; settings: in vivo
[6] = Cmax in BALB/c mouse at 3 mg/kg, iv administered as single bolus dose measured after 24 hrs by LC-MS/MS analysis; type: ADME, organism-based; set-up: dose 3 mg/kg, route intravenous; settings: in vivo
[7] = Half life in BALB/c mouse at 3 mg/kg, iv administered as single bolus dose measured after 24 hrs by LC-MS/MS analysis; type: ADME, organism-based; settings: in vivo
[8] = Mean residence time in BALB/c mouse at 3 mg/kg, iv administered as single bolus dose measured after 24 hrs by LC-MS/MS analysis; type: ADME, organism-based; settings: in vivo
[9] = AUC (0 to infinity) in BALB/c mouse at 10 mg/kg, po administered as single dose measured after 24 hrs by LC-MS/MS analysis; type: ADME, organism-based; set-up: dose 10 mg/kg, route oral, time infinity; settings: in vivo
[10] = Cmax in BALB/c mouse at 10 mg/kg, po administered as single dose measured after 24 hrs by LC-MS/MS analysis; type: ADME, organism-based; set-up: dose 10 mg/kg, route oral; settings: in vivo
[11] = Tmax in BALB/c mouse at 10 mg/kg, po administered as single dose measured after 24 hrs by LC-MS/MS analysis; type: ADME, organism-based; settings: in vivo
[12] = Half life in BALB/c mouse at 10 mg/kg, po administered as single dose measured after 24 hrs by LC-MS/MS analysis; type: ADME, organism-based; settings: in vivo
[13] = Mean residence time in BALB/c mouse at 10 mg/kg, po administered as single dose measured after 24 hrs by LC-MS/MS analysis; type: ADME, organism-based; settings: in vivo
[14] = Oral bioavailability in BALB/c mouse at 10 mg/kg administered as single dose measured after 24 hrs by LC-MS/MS analysis; type: ADME, organism-based; settings: in vivo
[15] = AUC(0 to infinity) in Sprague-Dawley rat at 10 mg/kg, po administered as single dose measured after 24 hrs by LC-MS/MS analysis; type: ADME, organism-based; set-up: dose 10 mg/kg, route oral, time infinity; settings: in vivo
[16] = Cmax in Sprague-Dawley rat at 10 mg/kg, po administered as single dose measured after 24 hrs by LC-MS/MS analysis; type: ADME, organism-based; set-up: dose 10 mg/kg, route oral; settings: in vivo
[17] = Tmax in Sprague-Dawley rat at 10 mg/kg, po administered as single dose measured after 24 hrs by LC-MS/MS analysis; type: ADME, organism-based; settings: in vivo
[18] = Half life in Sprague-Dawley rat at 10 mg/kg, po administered as single dose measured after 24 hrs by LC-MS/MS analysis; type: ADME, organism-based; settings: in vivo
[19] = Mean residence time in Sprague-Dawley rat at 10 mg/kg, po administered as single dose measured after 24 hrs by LC-MS/MS analysis; type: ADME, organism-based; settings: in vivo
[20] = target: T1, Voltage-gated inwardly rectifying potassium channel KCNH2; assay: Inhibition of human ERG expressed in CHO-K1 cells by automated Qpatch-clamp assay; type: cell-based
[21] = AUC (0 to infinity) in Sprague-Dawley rat at 10 mg/kg, po administered as single dose measured after 24 hrs by LC-MS/MS analysis; type: ADME, organism-based; set-up: dose 10 mg/kg, time infinity, route oral; settings: in vivo

T1 sequence (Q12809 whole entry): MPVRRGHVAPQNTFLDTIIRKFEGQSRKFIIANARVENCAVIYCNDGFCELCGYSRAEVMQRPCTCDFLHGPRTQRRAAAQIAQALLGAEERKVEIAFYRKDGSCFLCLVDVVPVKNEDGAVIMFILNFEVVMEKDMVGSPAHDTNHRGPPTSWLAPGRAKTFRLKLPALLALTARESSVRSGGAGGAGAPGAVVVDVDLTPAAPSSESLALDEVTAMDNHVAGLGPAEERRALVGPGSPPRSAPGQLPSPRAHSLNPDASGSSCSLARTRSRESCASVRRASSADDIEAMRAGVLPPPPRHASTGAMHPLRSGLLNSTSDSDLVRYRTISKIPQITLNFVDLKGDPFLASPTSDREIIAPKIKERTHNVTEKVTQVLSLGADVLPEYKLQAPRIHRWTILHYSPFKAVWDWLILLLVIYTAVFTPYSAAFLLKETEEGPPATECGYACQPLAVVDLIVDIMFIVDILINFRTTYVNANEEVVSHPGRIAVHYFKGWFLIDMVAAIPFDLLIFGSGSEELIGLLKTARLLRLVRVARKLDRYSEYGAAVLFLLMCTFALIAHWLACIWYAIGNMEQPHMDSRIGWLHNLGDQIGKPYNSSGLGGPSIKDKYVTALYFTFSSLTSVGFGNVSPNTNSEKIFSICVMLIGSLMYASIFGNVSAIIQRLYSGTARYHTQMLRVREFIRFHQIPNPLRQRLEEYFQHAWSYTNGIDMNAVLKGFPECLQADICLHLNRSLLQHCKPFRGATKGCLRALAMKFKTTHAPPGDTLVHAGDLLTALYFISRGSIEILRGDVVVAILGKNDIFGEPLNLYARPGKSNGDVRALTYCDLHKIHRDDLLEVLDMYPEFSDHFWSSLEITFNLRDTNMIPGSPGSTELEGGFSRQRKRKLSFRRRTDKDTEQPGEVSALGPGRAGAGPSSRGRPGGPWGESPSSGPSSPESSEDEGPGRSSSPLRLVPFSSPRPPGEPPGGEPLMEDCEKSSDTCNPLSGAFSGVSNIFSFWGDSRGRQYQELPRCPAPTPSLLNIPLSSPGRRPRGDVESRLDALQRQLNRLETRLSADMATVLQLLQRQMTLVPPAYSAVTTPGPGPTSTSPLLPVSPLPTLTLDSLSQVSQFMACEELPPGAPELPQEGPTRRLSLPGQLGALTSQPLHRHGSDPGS
Acidic mammalian chitinase, sequence (Q9BZP6 whole entry): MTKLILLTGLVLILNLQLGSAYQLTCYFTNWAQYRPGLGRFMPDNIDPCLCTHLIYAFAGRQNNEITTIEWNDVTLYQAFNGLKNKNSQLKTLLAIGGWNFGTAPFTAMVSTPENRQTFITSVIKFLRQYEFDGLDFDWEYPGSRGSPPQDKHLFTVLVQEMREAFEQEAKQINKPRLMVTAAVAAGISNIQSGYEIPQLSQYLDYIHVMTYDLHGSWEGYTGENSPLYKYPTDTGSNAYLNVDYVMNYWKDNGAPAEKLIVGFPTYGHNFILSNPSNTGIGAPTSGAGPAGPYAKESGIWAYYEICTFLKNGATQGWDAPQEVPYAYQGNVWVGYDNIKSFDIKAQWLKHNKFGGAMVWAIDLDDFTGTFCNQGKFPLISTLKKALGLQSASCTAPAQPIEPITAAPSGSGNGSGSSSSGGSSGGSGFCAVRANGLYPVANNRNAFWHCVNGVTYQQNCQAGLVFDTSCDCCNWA
Chitotriosidase-1, sequence (Q13231 whole entry): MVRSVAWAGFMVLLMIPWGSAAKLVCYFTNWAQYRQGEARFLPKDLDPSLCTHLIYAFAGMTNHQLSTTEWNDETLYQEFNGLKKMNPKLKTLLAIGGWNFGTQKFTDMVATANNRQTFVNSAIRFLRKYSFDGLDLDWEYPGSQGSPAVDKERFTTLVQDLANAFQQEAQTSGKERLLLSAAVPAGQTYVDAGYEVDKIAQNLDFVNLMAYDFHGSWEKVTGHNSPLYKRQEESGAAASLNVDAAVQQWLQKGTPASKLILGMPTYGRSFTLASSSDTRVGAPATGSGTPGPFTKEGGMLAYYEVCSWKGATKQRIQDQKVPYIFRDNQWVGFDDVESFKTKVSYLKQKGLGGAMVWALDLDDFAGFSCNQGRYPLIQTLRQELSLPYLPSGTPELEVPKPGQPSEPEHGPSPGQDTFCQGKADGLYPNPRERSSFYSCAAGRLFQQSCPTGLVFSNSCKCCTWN

SMILES	IC50 [1]	IC50 (Chitotriosidase-1)	IC50 [4]	AUC(0-inf) [21]	also measured
C=C1COC[C@H](Cc2ccc(Cl)cc2)N(C2CCN(c3nnc(N)[nH]3)CC2)C1	12 nM	350 nM	–	–	–
Nc1nnc(N2CCC(N3Cc4ccccc4OC[C@@H]3Cc3ccc(Cl)cc3)CC2)[nH]1	7 nM	915 nM	22000 nM	–	clearance [2]: 16.7 mL/min/kg; Vd [3]: 0.35 L/kg; AUC(0-inf) [5]: 2900 ng·h/mL; Cmax [6]: 9500 ng/mL; half-life [7]: 84 min; MRT [8]: 20.4 min; AUC(0-inf) [9]: 3900 ng·h/mL; Cmax [10]: 3100 ng/mL; Tmax [11]: 30 min; half-life [12]: 66 min; MRT [13]: 50.4 min; bioavailability [14]: 41%; AUC(0-inf) [15]: 22500 ng·h/mL; Cmax [16]: 3400 ng/mL; Tmax [17]: 30 min; half-life [18]: 252 min; MRT [19]: 252 min; IC50 [20]: 23000 nM
CN1C[C@H](Cc2ccc(Cl)cc2)N(C2CCN(c3nnc(N)[nH]3)CC2)Cc2cc(Cl)ccc21	0.7 nM	420 nM	800 nM	–	–
CC(C)CN(CCc1ccc(Cl)cc1)C1CCN(c2nc(N)n[nH]2)CC1	–	229 nM	–	90 ng·h/mL	–
Nc1nc(N2CCC(N(CCc3ccc(Cl)cc3)Cc3ccc(F)cc3Cl)CC2)n[nH]1	5 nM	200 nM	–	7500 ng·h/mL	Cmax [16]: 690 ng/mL
Nc1nnc(N2CCC(N3Cc4cc(Cl)cc(Cl)c4OC[C@@H]3Cc3ccc(Cl)cc3)CC2)[nH]1	68 nM	> 20000 nM	6000 nM	–	–
Nc1n[nH]c(N2CCC(N(CCc3ccc(Cl)cc3)Cc3ccccc3)CC2)n1	–	122 nM	–	–	–
CN1C[C@H](Cc2ccc(Cl)cc2)N(C2CCN(c3nnc(N)[nH]3)CC2)Cc2ccccc21	1.4 nM	275 nM	3200 nM	–	–
Nc1nnc(N2CCC(N3Cc4cc(Cl)ccc4OC[C@@H]3Cc3ccc(Cl)cc3)CC2)[nH]1	8 nM	2300 nM	6700 nM	–	–
Nc1nc(N2CCC(N(CCc3ccc(Cl)cc3)Cc3cccc(C(F)(F)F)c3)CC2)n[nH]1	12 nM	310 nM	2700 nM	13700 ng·h/mL	Cmax [16]: 1600 ng/mL
Nc1nc(N2CCC(N(CCc3ccc(Cl)cc3)Cc3ccccc3O)CC2)n[nH]1	2 nM	49 nM	100 nM	–	–
Nc1nc(N2CCC(N(CCc3ccc(Cl)cc3)Cc3cccc(O)c3)CC2)n[nH]1	2 nM	79 nM	150 nM	–	–
Nc1nc(N2CCC(N(CCc3ccc(Cl)cc3)Cc3ccncc3Cl)CC2)n[nH]1	15 nM	620 nM	6400 nM	430 ng·h/mL	Cmax [16]: 130 ng/mL
Nc1nc(N2CCC(N(CCc3ccc(Cl)cc3)Cc3cccc(Cl)c3)CC2)n[nH]1	6 nM	176 nM	3700 nM	7800 ng·h/mL	Cmax [16]: 780 ng/mL
Nc1n[nH]c(N2CCC(N(CCc3ccc(Cl)cc3)Cc3ccccc3Cl)CC2)n1	–	104 nM	2000 nM	1400 ng·h/mL	–
Nc1nc(N2CCC(N3Cc4cnccc4OC[C@@H]3Cc3ccc(Cl)cc3)CC2)n[nH]1	290 nM	18000 nM	17000 nM	–	–
N#Cc1ccc2c(c1)CN(C1CCN(c3n[nH]c(N)n3)CC1)[C@@H](Cc1ccc(Cl)cc1)CO2	49 nM	7300 nM	23000 nM	–	–
Nc1nnc(N2CCC(N3Cc4cc(F)ccc4OC[C@@H]3Cc3ccc(Cl)cc3)CC2)[nH]1	7 nM	930 nM	–	–	–
Nc1nnc(N2CCC(N3Cc4ccncc4OC[C@@H]3Cc3ccc(Cl)cc3)CC2)[nH]1	55 nM	4400 nM	50000 nM	–	–
Nc1nc(N2CCC(N(CCc3ccc(Cl)cc3)Cc3ccc(Cl)cc3)CC2)n[nH]1	4 nM	90 nM	400 nM	7000 ng·h/mL	–
Nc1nc(N2CCC(N3Cc4cccnc4OC[C@@H]3Cc3ccc(Cl)cc3)CC2)n[nH]1	30 nM	2400 nM	> 50000 nM	–	–
CN(C1CCN(c2n[nH]c(N)n2)CC1)[C@H](COc1ccc(Cl)cc1)Cc1ccc(Cl)cc1	580 nM	16000 nM	–	–	–
Nc1nc(N2CCC(N(CCc3ccc(Cl)cc3)Cc3cc(F)ccc3F)CC2)n[nH]1	5 nM	277 nM	–	2400 ng·h/mL	Cmax [16]: 600 ng/mL
Nc1nc(N2CCC(N(Cc3ccccc3)[C@H](CO)Cc3ccc(Cl)cc3)CC2)n[nH]1	245 nM	18000 nM	2900 nM	–	–

Source: ChEMBL document CHEMBL4616703, “Benzoxazepine-Derived Selective, Orally Bioavailable Inhibitor of Human Acidic Mammalian Chitinase” (ACS Med Chem Lett, 2020)
